Assay [1] concerns the target HiBiT tagged BRD4-BD1 protein in HEK293/LgBiT/hPGK/HiBiT-BRD4-BD1 cells (Homo sapiens, UniProt O60885). Nature of the assay: BET BD1 domain degradation assay. It counts as cell-based. Further details: HiBit-linker-BRD4 BD1(1-209); host or cells: HEK293 (ATCC CRL-1573) stably transduced with LgBiT and HiBiT-BRD4-BD1. The settings on record: concentration for 50% reduction in HiBiT-BRD4-BD1 protein level, 3 hours, read-out: Absolute DC50—3 h (nM) HEK293_HiBiT-BRD4-BD1. From the text:
HEK293/LgBiT/hPGK/HiBiT-BRD4-BD1 cells were established by introducing LgBiT and HiBiT-BRD4-BD1 into the human fetus renal cell line HEK293 (ATCC Number CRL-1573). LgBiT was introduced using lentivirus vector LV[Exp]-Bsd-EFS>{LgBiT}, and HiBiT-BRD4-BD1 was introduced with lentivirus vector LV[Exp]-Puro-hPGK>{HiBit-linker-BRD4 BD1(1-209)}. The vector plasmids LV[Exp]-Bsd-EFS>{LgBiT} and LV[Exp]-Puro-hPGK>{HiBit-linker-BRD4_BD1(1-209)} were constructed by VectorBuilder Co. The lentivirus was produced using a Mission Lentivirus Packaging Mix (Sigma) according to the manufacturer's protocol. Viral infection and drug selection of infected cells were carried out by the following published method (Akagi T. et. al, PNAS 2003; 100:13567-72). The cells were maintenance cultured in a 5% CO2 incubator (37° C.), using culture medium. A 45 μL portion of cell suspension of HEK293/LgBiT/hPGK/HiBiT-BRD4-BD1 cells prepared to 6.7×10^4 cells/mL using culture medium was added to each well of a collagen I-coated 384-well plate (Falcon 356667), and the cells were cultured overnight in a 5% CO2 incubator (37° C.). On the following day, 5 μL of test substance diluted with RPMI-1640 (FujiFilm-Wako Pure Chemical Industries) containing 10% fetal bovine serum (FBS: SIGMA 173012) and penicillin/streptomycin (FujiFilm-Wako Pure Chemical Industries) was added to each well, and culturing was continued for 3 hours in a 5% CO2 incubator (37° C.). The luminous intensity was measured using a Nono-Glo HiBiT Lytic Detection System (Promega), and the intracellular HiBiT tagged BRD4-BD1 protein level was calculated. After culturing, 25 μL of measuring reagent was added to each well and the plate contents were mixed for 5 minutes using a plate mixer. The plate was stationed for 10 minutes at room temperature while shielded from light, and then the luminous intensity was measured with an ENVISION′ (Perkin-Elmer). The luminescence value of the wells with addition of test substance was determined as a relative value, with 100% as the luminescence value of the wells with cells but without addition of the test substance, and 0% as the luminescence value of the wells without cells. A plot of test substance concentration against luminescence value % approximated a 4-parameter logistic curve, and the test substance concentration necessary for 50% reduction in protein level (Absolute DC50) was calculated and is shown in Table 4.
(With HiBiT, luminescence reflects the tagged protein that the partner subunit can reach.)

Assay [2] concerns AsPC-1/Cas9 cell line. As to the kind of experiment: AsPC-1/Cas9 growth inhibition assay. It counts as cell-based, human. The settings on record: Homo sapiens, ASPC1, 120 h, AsPC-1/Cas9 cells, 5 days culture, CellTiter Glo 2.0; read-out: Absolute IC50—Day 5 (nM) AsPC-1 Cas9. The method, then:
The human pancreatic cancer cell line AsPC-1 (ATCC Number CRL1682) was infected with Edit-R Lentiviral hCMV-Blast-Cas9 Nuclease Particle (Dharmacon, VCAS10124) in the presence of 8 μg/ml of Hexadimethrine bromide (Sigma, H9268), and after 24 hours it was exposed to 10 μg/ml of Blastcidin S (Thermo, A11139) to remove the uninfected cells, thereby establishing an AsPC-1/Cas9 cell line. The cells were maintenance cultured in a 5% CO2 incubator (37° C.) using RPMI-1640 (FujiFilm-Wako Pure Chemical Industries) containing 10% fetal bovine serum (FBS: SIGMA 173012) and penicillin/streptomycin (FujiFilm-Wako Pure Chemical Industries) (hereunder referred to simply as “culture medium”). After adding 45 μL of AsPC-1/Cas9 cell suspension prepared to 2.0×10^4 cells/mL using culture medium into each well of a 384-well plate (Greiner 781091), the cells were cultured overnight in a 5% CO2 incubator (37° C.). On the following day, 5 μL of the test substance diluted with culture medium was added to each well, and culturing was continued for 5 days in a 5% CO2 incubator (37° C.). Next, 25 μL of CellTiter Glo™ 2.0 (Promega) was added to each well, and the plate contents were mixed for 5 minutes using a plate mixer. The plate was stationed for 10 minutes at room temperature while shielded from light, and then the luminous intensity was measured with an ENVISION™ (Perkin-Elmer). The luminescence value of the wells with addition of test substance was determined as a relative value, with 100% as the luminescence value of the wells with cells but without addition of the test substance, and 0% as the luminescence value of the wells without cells. A plot of test substance concentration against luminescence value % approximated a 4-parameter logistic curve, and the test substance concentration necessary for 50% inhibition of cell growth (Absolute IC50) was calculated, and is shown in Table 4.
Background: ATP-based viability assays read luminescence as a measure of living cells.

Assay [3] relates to Human pancreatic cancer cell line HPAF-II. As to the kind of experiment: HPAF-II growth inhibition assay (Example 317). The following applies: 120 h, HPAF-II cells, 5 days culture, CellTiter Glo 2.0 (Example 317, Table 11), read-out: Absolute IC50. It counts as cell-based. The method, then: Cells of the human pancreatic cancer cell line HPAF-II (ATCC Number CRL-1997) were maintenance cultured in a 5% CO2 incubator (37° C.) using RPMI 1640 (FujiFilm-Wako Pure Chemical Industries) containing 10% fetal bovine serum (FBS: SIGMA 173012) and penicillin/streptomycin (FujiFilm-Wako Pure Chemical Industries) (hereunder referred to simply as “culture medium”). After adding 25 μL of HPAF-II cell suspension prepared to 3.2×10^4 cells/mL using culture medium into each well of a 384-well plate (Greiner 781091), the cells were cultured overnight in a 5% CO2 incubator (37° C.). On the following day, 25 μL of the test substance diluted with culture medium was added to each well, and culturing was continued for 5 days in a 5% CO2 incubator (37° C.). Next, 25 μL of CellTiter Glo™ 2.0 (Promega) was added to each well, and the plate contents were mixed for 5 minutes using a plate mixer. The plate was stationed for 10 minutes at room temperature while shielded from light, and then the luminous intensity was measured with an ENVISION′ (Perkin-Elmer). The luminescence value of the wells with addition of test substance was determined as a relative value, with 100% as the luminescence value of the wells with cells but without addition of the test substance and 0% as the luminescence value of the wells without cells. […]

The structures appear in SMILES notation.

What is called DC50 is the midpoint of the concentration-degradation curve. One may read the IC50 as the point on the concentration scale where inhibition reaches its midpoint. On to `COc1ccc(C#CCNC2(C)CCN(C3CCN(c4nc([C@@](CO)(OC5CC5)c5ccccc5)c5cc(-c6cn(C)c(=O)c7[nH]ccc67)ccc5n4)CC3)CC2)cc1N1CCC(=O)N(CNC(=O)[C@H](CC(N)=O)NC(C)=O)C1=O` [Example 135, (S)-2-Acetamide-N1-((3-(5-(3-((1′-(4-((S)-1-cyclopropoxy-2-hydroxy-1-phenylethyl)-6-(6-methyl-7-oxo-6,7-dihydro-1H-pyrrolo[2,3-c]pyridin-4-yl)quinazolin-2-yl)-4-methyl-[1,4′-bipiperidin]-4-yl)amino)prop-1-yn-1-yl)-2-methoxyphenyl)-2,6-dioxotetrahydropyrimidine-1(2H)-yl)methyl)succinamide], for which the DC50 in assay [1] was more than 100 nM. Also, the half-maximal inhibitory concentration (IC50) in assay [2] worked out at 2.4 nM; in assay [3] it was 2.9 nM.

The values are drawn from patent publication US20240148895A1, “ANTIBODY-DRUG CONJUGATE” (Eisai R&D Management Co., Ltd., priority 2022, published 2024).
